# In patent US12390419B2, “Formulations of (R)-2-amino-3-phenylpropyl carbamate” (AXSOME MALTA LTD., priority 2016, dated 2025):
# Legend:
# [1] = Dissolution of coated APC tablets in three media (apparatus 1 basket, 100 rpm, 900 ml, 37° C.); format: physicochemical
# Description: A substantial concern was the effect of media pH. Although APC will be developed as an immediate release product, FDA guidances require comparison of profiles in three media including pH 6.8 (representing intestinal pH). […] The media used were 0.1 N HCl pH 1.2, acetate buffer pH 4.5, and phosphate buffer pH 6.8. The dissolution study was carried using 12 tablets per dose, apparatus 1 (basket), 900 ml media volume, 37° C., 100 rpm. The tablets were coated with Opadry white polymer system.
# [2] = Solubility of APC in 0.2M phosphate buffers; format: physicochemical
smiles,measurement,setting,value
"NC(=O)OC[C@H](N)Cc1ccccc1 [APC, (R)-2-amino-3-phenylpropyl carbamate]",Percent release,"[1]; 37.5 mg tablet, pH 1.2, 5 min",71.9%
same,Percent release,"[1]; 37.5 mg tablet, pH 1.2, 10 min",99.3%
same,Percent release,"[1]; 37.5 mg tablet, pH 1.2, 15 min",99.7%
same,Percent release,"[1]; 37.5 mg tablet, pH 4.5, 5 min",76.8%
same,Percent release,"[1]; 37.5 mg tablet, pH 4.5, 10 min",101.8%
same,Percent release,"[1]; 37.5 mg tablet, pH 4.5, 15 min",102.1%
same,Percent release,"[1]; 37.5 mg tablet, pH 6.8, 5 min",69.6%
same,Percent release,"[1]; 37.5 mg tablet, pH 6.8, 10 min",100.2%
same,Percent release,"[1]; 37.5 mg tablet, pH 6.8, 15 min",100.7%
same,Percent release,"[1]; 75 mg tablet, pH 1.2, 5 min",62.9%
same,Percent release,"[1]; 75 mg tablet, pH 1.2, 10 min",98.7%
same,Percent release,"[1]; 75 mg tablet, pH 1.2, 15 min",99.4%
same,Percent release,"[1]; 75 mg tablet, pH 4.5, 5 min",53.9%
same,Percent release,"[1]; 75 mg tablet, pH 4.5, 10 min",100.8%
same,Percent release,"[1]; 75 mg tablet, pH 4.5, 15 min",102.5%
same,Percent release,"[1]; 75 mg tablet, pH 6.8, 5 min",57.6%
same,Percent release,"[1]; 75 mg tablet, pH 6.8, 10 min",99.4%
same,Percent release,"[1]; 75 mg tablet, pH 6.8, 15 min",100.2%
same,Percent release,"[1]; 150 mg tablet, pH 1.2, 5 min",46.8%
same,Percent release,"[1]; 150 mg tablet, pH 1.2, 10 min",96.9%
same,Percent release,"[1]; 150 mg tablet, pH 1.2, 15 min",98.4%
same,Percent release,"[1]; 150 mg tablet, pH 4.5, 5 min",42.6%
same,Percent release,"[1]; 150 mg tablet, pH 4.5, 10 min",97.7%
same,Percent release,"[1]; 150 mg tablet, pH 4.5, 15 min",100.4%
same,Percent release,"[1]; 150 mg tablet, pH 6.8, 5 min",42.4%
same,Percent release,"[1]; 150 mg tablet, pH 6.8, 10 min",97.4%
same,Percent release,"[1]; 150 mg tablet, pH 6.8, 15 min",100.7%
same,Percent release,"[1]; 300 mg tablet, pH 1.2, 5 min",35.0%
same,Percent release,"[1]; 300 mg tablet, pH 1.2, 10 min",91.2%
same,Percent release,"[1]; 300 mg tablet, pH 1.2, 15 min",99.5%
same,Percent release,"[1]; 300 mg tablet, pH 4.5, 5 min",30.0%
same,Percent release,"[1]; 300 mg tablet, pH 4.5, 10 min",89.1%
same,Percent release,"[1]; 300 mg tablet, pH 4.5, 15 min",99.8%
same,Percent release,"[1]; 300 mg tablet, pH 6.8, 5 min",31.6%
same,Percent release,"[1]; 300 mg tablet, pH 6.8, 10 min",89.9%
same,Percent release,"[1]; 300 mg tablet, pH 6.8, 15 min",100.2%
same,solubility,"[2]; 0.2M phosphate buffer, pH 6.8, aqueous buffer, thermodynamic from solid",26 mg/mL
same,solubility,"[2]; aqueous buffer, thermodynamic from solid, 0.2M phosphate buffer pH 5.33, pH after equilibration 4.25",542 mg/mL
same,solubility,"[2]; aqueous buffer, thermodynamic from solid, 0.2M phosphate buffer pH 5.95, pH after equilibration 4.78",525 mg/mL
same,solubility,"[2]; aqueous buffer, thermodynamic from solid, 0.2M phosphate buffer pH 6.97, pH after equilibration 6.76",26.6 mg/mL
same,solubility,"[2]; aqueous buffer, thermodynamic from solid, 0.2M phosphate buffer pH 8.02, pH after equilibration 7.47",22.5 mg/mL
same,solubility,"[2]; aqueous buffer, thermodynamic from solid, 0.2M phosphate buffer pH 8.99, pH after equilibration 7.55",22.4 mg/mL
same,solubility,"[2]; pH 4.22, thermodynamic from solid, pH of buffer N/A (water), pH after equilibration 4.22",534 mg/mL
same,solubility,"[2]; water or acidic media, water, thermodynamic from solid",530 mg/mL
